One data set has as its system primary human thyrocytes. The data set can be described thus: Observed cytotoxic effects in stimulated primary human thyrocytes. Conditions: two doses: 10 and 40 μM (β-sitosterol 50 and 150 μM). It counts as cell-based.
For data set [1], the target named is T1, HSP90AA1 (Homo sapiens, UniProt P07900). The data set can be described thus: Limited proteolysis-mass spectrometry. In kind it is binding. Conditions: lysate of dsDNA/dsRNA-stimulated primary human thyrocytes, 0.33 nmol/μg total protein.
The target in data set [2] is T1, HSP90AA1. The data set can be described thus: Microscale thermophoresis. It counts as binding. A general note: Microscale thermophoresis detects binding through changes in fluorescence in a small temperature gradient.

Consider five compounds from PMC11382315 (Heliyon, 2024).

The term Kd denotes the equilibrium constant for the complex coming apart. Read a low Kd as a tighter complex.

Turning to `O=c1c(O)c(-c2ccc(O)c(O)c2)oc2cc(O)cc(O)c12` [quercetin], the cytotoxic effects result with primary human thyrocytes is on record as “without observed cytotoxic effects”. On HSP90AA1 [1], the “interaction with HSP90AA1 by Lip-MS” value is recorded as “identified as a common interacting protein target”.

As for `O=c1c(O)c(-c2ccc(O)cc2)oc2cc(O)cc(O)c12` [kaempferol], the Kd at HSP90AA1 [2] turned out to be 169 µM. The cytotoxic effects entry with primary human thyrocytes was “without observed cytotoxic effects”.

In turn, `O=c1cc(-c2ccc(O)c(O)c2)oc2cc(O)cc(O)c12` [luteolin] came in with a Kd at HSP90AA1 [2] of 294 µM. Further, the “interaction with HSP90AA1 by Lip-MS” value on HSP90AA1 [1] is recorded as “identified as a common interacting protein target”.

For `CC[C@H](CC[C@@H](C)[C@H]1CC[C@H]2[C@@H]3CC=C4C[C@@H](O)CC[C@]4(C)[C@H]3CC[C@]12C)C(C)C` [β-sitosterol], the “KD (affinity with HSP90AA1)” value on HSP90AA1 [2] (His-tag labeled HSP90AA1 50 nM, ligand 30 nM to 1 mM, PBS) is reported as “no binding affinity”. In the data set on primary human thyrocytes, the cytotoxic effects entry is reported as “without observed cytotoxic effects”.

`O=c1c(O)c(-c2ccc(O)cc2O)oc2cc(O)cc(O)c12` [morin] had a Kd on HSP90AA1 [2] of 123 µM. The cytotoxic effects entry with primary human thyrocytes was “without observed cytotoxic effects”. Also, the “interaction with HSP90AA1 by Lip-MS” value on HSP90AA1 [1] was “identified as a common interacting protein target”.
